Reference: patent publication US20260356851A1, “TRICYCLIC COMPOUNDS AND USES THEREOF” (HUTCHMED LIMITED, priority 2023, published 2026)

Legend:
Assay type in all cases: cell-based
[1] = target: T1, pERK1/2 (Thr202/Tyr204), NCI-1H358 (KRAS G12C) (Homo sapiens, UniProt P01116, G12C); test: Assay of intracellular pERK1/2 (Thr202/Tyr204) phosphorylation in NCI-H358 cells (KRAS G12C); settings: pERK1/2, 2 days, read-out: NCI-H358 (KRAS G12C) IC50
T1 construct: pERK1/2 HTRF read-out
How it was run: (§1)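 HTRF detection of Thr202/Tyr204-phosphorylated ERK1/2 (665/615 nm ratio) in lysates from cells treated 2 days with serially 3-fold diluted compound.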

[2] = target: T2, pERK1/2 (Thr202/Tyr204), PANC-1 (KRAS G121D) (Homo sapiens, UniProt P01116, G12D); test: Assay of intracellular pERK1/2 (Thr202/Tyr204) phosphorylation in PANC-1 cells (KRAS G12D); settings: pERK1/2, 2 days, read-out: PANC-1 (KRAS G12D) IC50
T2 construct: pERK1/2 HTRF read-out
T2 sequence (P01116 1-188 isoform P01116-2 G12D): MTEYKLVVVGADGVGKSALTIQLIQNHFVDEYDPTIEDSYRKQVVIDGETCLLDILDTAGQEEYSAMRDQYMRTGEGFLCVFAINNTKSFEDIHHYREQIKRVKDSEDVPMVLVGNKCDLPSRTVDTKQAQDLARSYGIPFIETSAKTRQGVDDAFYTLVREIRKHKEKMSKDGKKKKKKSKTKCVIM
How it was run: as §1

[3] = target: T3, pERK1/2 (Thr202/Tyr204), NCI-1H441 (KRAS G12V) (Homo sapiens, UniProt P01116, G12V); test: Assay of intracellular pERK1/2 (Thr202/Tyr204) phosphorylation in NCI-H441 cells (KRAS G12V); settings: pERK1/2, 2 days, read-out: NCI-H441 (KRAS G12V) IC50
T3 construct: pERK1/2 HTRF read-out
T3 sequence (P01116 1-188 isoform P01116-2 G12V): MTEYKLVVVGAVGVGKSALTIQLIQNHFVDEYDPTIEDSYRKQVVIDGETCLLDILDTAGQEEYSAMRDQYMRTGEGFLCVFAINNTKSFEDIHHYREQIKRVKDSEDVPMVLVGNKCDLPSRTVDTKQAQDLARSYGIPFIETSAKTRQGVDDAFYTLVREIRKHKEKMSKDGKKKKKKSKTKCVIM
How it was run: as §1

T1 sequence (P01116 1-188 isoform P01116-2 G12C): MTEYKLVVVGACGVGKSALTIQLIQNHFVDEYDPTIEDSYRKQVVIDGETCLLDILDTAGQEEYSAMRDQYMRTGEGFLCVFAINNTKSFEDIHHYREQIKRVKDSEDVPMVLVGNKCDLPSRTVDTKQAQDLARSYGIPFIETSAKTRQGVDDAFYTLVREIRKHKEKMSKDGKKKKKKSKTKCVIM

IC50 [1] [nM]	IC50 [2] [nM]	IC50 [3] [nM]	Compound
9	> 100	33	[2H]C1([2H])Oc2nc(-c3cc(N)c(F)c(Cl)c3C(F)(F)F)c(F)c3nc(OC[C@@]45CCCN4C[C@H](F)C5)nc(c23)N(C(C)c2cccnc2N)C1([2H])[2H] (single isomer, unassigned) [Compound 207, 3-((R or S)-1-(5-(5-amino-3-chloro-4-fluoro-2-(trifluoromethyl)phenyl)-4-fluoro-2-(((2R,7aS)-2-fluorotetrahydro-1H-pyrrolizin-7a(5H)-yl)methoxy)-8,9-dihydro-10H-7-oxa-1,3,6,10-tetraazacyclohepta[de]naphthalen-10-yl-8,8,9,9-d4)ethyl)pyridin-2-amine]
0.4	10	1	[2H]C1([2H])Oc2nc(-c3cc(N)c(F)c(Cl)c3C(F)(F)F)c(F)c3nc(OC[C@@H]4C[C@@H](F)CN4C)nc(c23)N(C(C)c2cccnc2N)C1([2H])[2H] (single isomer, unassigned) [Compound 208, 3-((R or S)-1-(5-(5-amino-3-chloro-4-fluoro-2-(trifluoromethyl)phenyl)-4-fluoro-2-(((2S,4R)-4-fluoro-1-methylpyrrolidin-2-yl)methoxy)-8,9-dihydro-10H-7-oxa-1,3,6,10-tetraazacyclohepta[de]naphthalen-10-yl-8,8,9,9-d4)ethyl)pyridin-2-amine]
13	> 100	45	[2H]C1([2H])Oc2nc(-c3cc(N)c(F)c(Cl)c3C(F)(F)F)c(F)c3nc(OC[C@@H]4C[C@@H](F)CN4C)nc(c23)N(C(C)c2cccnc2N)C1([2H])[2H] (single isomer, unassigned) [Compound 209, 3-((R or S)-1-(5-(5-amino-3-chloro-4-fluoro-2-(trifluoromethyl)phenyl)-4-fluoro-2-(((2S,4R)-4-fluoro-1-methylpyrrolidin-2-yl)methoxy)-8,9-dihydro-10H-7-oxa-1,3,6,10-tetraazacyclohepta[de]naphthalen-10-yl-8,8,9,9-d4)ethyl)pyridin-2-amine]
0.3	6	0.6	CCC(c1cccnc1N)N1CCOc2nc(-c3cc(N)c(F)c(C)c3C(F)(F)F)c(F)c3nc(OC[C@@]45CCCN4C[C@H](F)C5)nc1c23 (single isomer, unassigned) [Compound 212, 3-((R or S)-1-(5-(5-amino-4-fluoro-3-methyl-2-(trifluoromethyl)phenyl)-4-fluoro-2-(((2R,7aS)-2-fluorotetrahydro-1H-pyrrolizin-7a(5H)-yl)methoxy)-8,9-dihydro-10H-7-oxa-1,3,6,10-tetraazacyclohepta[de]naphthalen-10-yl)propyl)pyridin-2-amine]
13	> 100	18	CC[C@@H](c1cccnc1N)N1CCOc2nc(-c3cc(N)c(F)c(C)c3C(F)(F)F)c(F)c3nc(OC[C@@]45CCCN4C[C@H](F)C5)nc1c23 (single isomer, unassigned) [Compound 213, 3-((R or S)-1-(5-(5-amino-4-fluoro-3-methyl-2-(trifluoromethyl)phenyl)-4-fluoro-2-(((2R,7aS)-2-fluorotetrahydro-1H-pyrrolizin-7a(5H)-yl)methoxy)-8,9-dihydro-10H-7-oxa-1,3,6,10-tetraazacyclohepta[de]napthalen-10-yl)propyl)pyridin-2-amine]
0.2	4	0.3	CCC(c1cccnc1N)N1CCOc2nc(-c3cc(N)c(F)c(Cl)c3C(F)(F)F)c(F)c3nc(OC[C@@]45CCCN4C[C@H](F)C5)nc1c23 (single isomer, unassigned) [Compound 214, 3-((R or S)-1-(5-(5-amino-3-chloro-4-fluoro-2-(trifluoromethyl)phenyl)-4-fluoro-2-(((2R,7aS)-2-fluorotetrahydro-1H-pyrrolizin-7a(5H)-yl)methoxy)-8,9-dihydro-10H-7-oxa-1,3,6,10-tetraazacyclohepta[de]naphthalen-10-yl)propyl)pyridin-2-amine]
21	> 100	36	CCC(c1cccnc1N)N1CCOc2nc(-c3cc(N)c(F)c(Cl)c3C(F)(F)F)c(F)c3nc(OC[C@@]45CCCN4C[C@H](F)C5)nc1c23 (single isomer, unassigned) [Compound 215, 3-((R or S)-1-(5-(5-amino-3-chloro-4-fluoro-2-(trifluoromethyl)phenyl)-4-fluoro-2-(((2R,7aS)-2-fluorotetrahydro-1H-pyrrolizin-7a(5H)-yl)methoxy)-8,9-dihydro-10H-7-oxa-1,3,6,10-tetraazacyclohepta[de]naphthalen-10-yl)propyl)pyridin-2-amine]
2	48	2	CCC(c1cccnc1N)N1CCOc2nc(-c3cc(N)c(F)c(F)c3C(F)(F)F)c(F)c3nc(OC[C@@]45CCCN4C[C@H](F)C5)nc1c23 (single isomer, unassigned) [Compound 216, 3-((R or S)-1-(5-(5-amino-3,4-difluoro-2-(trifluoromethyl)phenyl)-4-fluoro-2-(((2R,7aS)-2-fluorotetrahydro-1H-pyrrolizin-7a(5H)-yl)methoxy)-8,9-dihydro-10H-7-oxa-1,3,6,10-tetraazacyclohepta[de]naphthalen-10-yl)propyl)pyridin-2-amine]
> 100	> 100	> 100	CCC(c1cccnc1N)N1CCOc2nc(-c3cc(N)c(F)c(F)c3C(F)(F)F)c(F)c3nc(OC[C@@]45CCCN4C[C@H](F)C5)nc1c23 (single isomer, unassigned) [Compound 217, 3-((R or S)-1-(5-(5-amino-3,4-difluoro-2-(trifluoromethyl)phenyl)-4-fluoro-2-(((2R,7aS)-2-fluorotetrahydro-1H-pyrrolizin-7a(5H)-yl)methoxy)-8,9-dihydro-10H-7-oxa-1,3,6,10-tetraazacyclohepta[de]naphthalen-10-yl)propyl)pyridin-2-amine]
0.1	2	0.4	[2H]C1([2H])CC[C@@]2(COc3nc4c5c(nc(-c6cc(N)c(F)c(Cl)c6C(F)(F)F)c(F)c5n3)OC([2H])([2H])C([2H])([2H])N4[C@H](C)c3cccnc3N)C[C@@H](F)CN12 (single isomer, unassigned) [Compound 222, 3-((R or S)-1-(5-(5-amino-3-chloro-4-fluoro-2-(trifluoromethyl)phenyl)-4-fluoro-2-(((2R,7aS)-2-fluorotetrahydro-1H-pyrrolizin-7a(5H)-yl-5,5-d2)methoxy)-8,9-dihydro-10H-7-oxa-1,3,6,10-tetraazacyclohepta[de]naphthalen-10-yl-8,8,9,9-d4)ethyl)pyridin-2-amine]
2	20	7	[2H]C1([2H])CC[C@@]2(COc3nc4c5c(nc(-c6cc(N)c(F)c(Cl)c6C(F)(F)F)c(F)c5n3)OC([2H])([2H])C([2H])([2H])N4C(C)c3cccnc3N)C[C@@H](F)CN12 (single isomer, unassigned) [Compound 223, 3-((R or S)-1-(5-(5-amino-3-chloro-4-fluoro-2-(trifluoromethyl)phenyl)-4-fluoro-2-(((2R,7aS)-2-fluorotetrahydro-1H-pyrrolizin-7a(5H)-yl-5,5-d2)methoxy)-8,9-dihydro-10H-7-oxa-1,3,6,10-tetraazacyclohepta[de]naphthalen-10-yl-8,8,9,9-d4)ethyl)pyridin-2-amine]
0.2	2	0.6	CC(c1cccnc1N)N1CCOc2nc(-c3cc(N)c(F)c(Cl)c3C(F)(F)F)c(F)c3nc(OC[C@@]45CCCN4CC4(CC4(F)F)C5)nc1c23 (single isomer, unassigned) [Compound 227]
0.2	0.8	0.5	Cc1c(F)c(N)cc(-c2nc3c4c(nc(OC[C@@]56CCCN5CC5(CC5(F)F)C6)nc4c2F)N(C(C)c2cccnc2N)CCO3)c1C(F)(F)F (single isomer, unassigned) [Compound 228]
> 100	> 100	> 100	Cc1c(F)c(N)cc(-c2nc3c4c(nc(OC[C@@]56CCCN5C[C@H](F)C6)nc4c2F)N(C(C)c2cccnc2N)C[C@@H](C)O3)c1C(F)(F)F (single isomer, unassigned) [Compound 247, 3-((R or S)-1-((R)-5-(5-amino-4-fluoro-3-methyl-2-(trifluoromethyl)phenyl)-4-fluoro-2-(((2R,7aS)-2-fluorotetrahydro-1H-pyrrolizin-7a(5H)-yl)methoxy)-8-methyl-8,9-dihydro-10H-7-oxa-1,3,6,10-tetraazacyclohepta[de]naphthalen-10-yl)ethyl)pyridin-2-amine]
0.4	8	1	Cc1c(F)c(N)cc(-c2nc3c4c(nc(OC[C@@]56CCCN5C[C@H](F)C6)nc4c2F)N(C(C)c2cccnc2N)C[C@@H](C)O3)c1C(F)(F)F (single isomer, unassigned) [Compound 248, 3-((R or S)-1-((R)-5-(5-amino-4-fluoro-3-methyl-2-(trifluoromethyl)phenyl)-4-fluoro-2-(((2R,7aS)-2-fluorotetrahydro-1H-pyrrolizin-7a(5H)-yl)methoxy)-8-methyl-8,9-dihydro-10H-7-oxa-1,3,6,10-tetraazacyclohepta[de]naphthalen-10-yl)ethyl)pyridin-2-amine]
